Measured values from a melting point compilation (Tetko et al.; mined from patent text by program, amines drawn as free bases though some values may be those of a salt).

Row | SMILES | melting point [°C]
1 | O=c1[nH]c2c([nH]c1=O)C(O)c1ccccc1-2 (stereo not given) | > 300
2 | CC(C)Cn1nnc(-c2cccc(-c3ccnc4c(C(=O)c5cccs5)cnn34)c2)n1 | 141
3 | CNC(=O)N(O)C(C)C#Cc1ccc(Br)cc1 (stereo not given) | 145 to 146
4 | O=C1Nc2c(ccc3ccccc23)OC1c1ccc(Cl)cc1 (stereo not given) | 230 to 232
5 | COC(=O)c1ccc(C(=O)c2cc3c(cc2OCc2ccc(C(C)(C)C)cc2)C(C)(C)CCC3(C)C)cc1 | 168 to 170
6 | COc1cccc(N2CCN(CC(O)COC(c3ccccc3)c3cccc4ccccc34)CC2)c1 (stereo not given) | 84
7 | CC(=O)N1CC(=O)NC(=Cc2ccc(OCc3ccccc3)cn2)C1=O | 189 to 191
8 | CCCCCCCc1cnc(-c2ccc(OCC(F)CCCCCC)c(F)c2F)nc1 (stereo not given) | 56
9 | Cc1oc(C=Cc2ccc(Cl)cc2)nc1CCl | 121 to 122
10 | COc1cccc2c1CCC(C#N)=C2 | 47 to 49
11 | O=C(O)c1cnc(Cl)nc1-c1ccccc1 | 105 to 110
12 | CC1(C)Oc2ccc(CC3SC(=O)NC3=O)cc2CC1c1ccccc1 (stereo not given) | 53 to 68
13 | Cn1nc2nc(C(C)(C)C)[nH]c(=O)c2c1N | 285 to 287
14 | COc1ccccc1-c1cccc(-n2cnc3cc(C(O)C#N)ccc32)c1 (stereo not given) | 116 to 124
15 | CCOC(=O)c1cc(C(C)=O)[nH]n1 | 114 to 115
16 | O=C(Nc1ccc(F)cc1F)Nc1cnc2cc3c(cc2c1-c1ccccc1Cl)CCC3 | 247 to 248
17 | CC(=O)OC1(C)CN(C(=O)Nc2ccc(C(F)(F)F)cc2)N=C1c1ccc(Cl)cc1 (stereo not given) | 92 to 96
18 | CCOC(=O)c1cn(Cc2ccc(F)cc2)c2ccc(C(C)=O)cc2c1=O | 207 to 209
19 | COc1ccc(C(=O)Cc2ccc(Br)cc2)cc1 | 142
20 | CCOC(=O)Cc1nc2ccccc2n1-c1ccccc1 | 87 to 89

Row | SMILES | melting point [°C]
21 | COc1cc(C(=O)O)cc(C(F)(F)F)c1 | 131 to 135
22 | COC(=O)/C=C/C=C(\c1ccc(OC)cc1)c1cccnc1 | 75 to 76
23 | CCN1C(c2nnc(-c3ccccc3)o2)=C(OC(=O)C2CCCC2)c2ccccc2S1(=O)=O | 194 to 196
24 | N#CC1C(=O)Nc2cc(Cl)ccc2C1=O (stereo not given) | 314 to 316
25 | CCOC(=O)COc1ccc(SCc2ccnc3[nH]c(-c4ccc(C(F)(F)F)cc4)nc23)cc1C | 239 to 241
26 | CCOc1csc2c(=O)c(SC)cn(C)c12 | 214 to 217
27 | O=C(Nc1ccc(-n2nc(C(F)(F)F)cc2C(F)(F)F)cc1)c1cc(Cl)cnc1Cl | 228 to 229
28 | CCCCCCCCCCCCCCc1ccc(OCC(O)CO)cc1 (stereo not given) | 81.5 to 83.5
29 | FC(F)(F)c1cc(Nc2nc3ccccc3o2)ccc1Br | 211 to 212
30 | COc1cc(/C=C(\C(=O)NCCCCCC(=O)NO)c2ccc(F)cc2)cc(OC)c1 | 104 to 105
31 | NC(=O)Cc1c[nH]c2ccc(OCc3ccccc3)cc12 | 137 to 140
32 | OCC1CNc2ncccc2O1 (stereo not given) | 123 to 124
33 | Nc1cc(=O)n(Cc2ccc([N+](=O)[O-])cc2)[nH]1 | 182
34 | COc1ccc(S(=O)(=O)C(C)(Cc2ccc(OCCN3CCCCCC3)cc2)C(=O)NO)cc1 (stereo not given) | 68
35 | CCCCCCC(=N)NC(=S)Nc1ccccc1Cl | 75 to 77
36 | CCCCc1c(Cl)ncnc1Cl | 62 to 63
37 | O=C(Nc1cccc(Cl)c1)ONC1=Nc2ccc(Cl)cc2C(c2ccccc2)=NC1 | 158 to 159
38 | O=Cc1cccc2ncc(-c3ccccc3)cc12 | 122 to 124
39 | COC(=O)[C@@H]1CCCN1S(=O)(=O)c1ccc(Cl)c(COc2cccc3ccc(C)nc23)c1Cl | 136

Now from value to compound:

Row | melting point [°C] | SMILES
40 | 99 to 100 | CCCc1cc(Cl)c2oc(Cc3ccc(OC)cc3)c(C)c2c1OC(=O)OCC
41 | 64 to 65 | Cc1ccc(S(=O)(=O)OCC2CCCc3scnc32)cc1 (stereo not given)
42 | 65 to 67 | CCOC(=O)C(F)Cc1ccc(OCCN(C)c2nc3ccccc3o2)cc1 (stereo not given)
43 | 89 to 91 | COc1ccccc1CN1CCC(CCC(=O)c2ccc(N3CCCC3)cc2)CC1
44 | 269 to 274 | COCC1COc2cc3ncnc(Nc4cc(Cl)cc(Cl)c4)c3cc2O1 (stereo not given)
45 | 188 to 192 | CC(C(=O)c1ccc2c(c1)CC(=O)N2)N1CCC(O)(Cc2ccccc2)CC1 (stereo not given)
46 | 127 to 130 | O=C1SC(Cc2ccc(OCCON=Cc3ccc4ccccc4n3)cc2)C(=O)N1C(c1ccccc1)(c1ccccc1)c1ccccc1 (stereo not given)
47 | 222 to 225 | COc1cccc2c(Nc3cccc(N(C)C)c3)c(C#N)cnc12
48 | 143 to 144 | Cc1nnc(-c2ccc3occ(-c4cc(F)ccc4F)c3c2)o1
49 | 133 to 134 | COc1cc(/C=C/C=C/C=O)ccc1OCc1nc(-c2ccccc2)oc1C
50 | 44 to 46 | CC1(C)OC[C@H](CCOc2c(C(C)(C)C)cc(SC(C)(C)Sc3cc(C(C)(C)C)c(O)c(C(C)(C)C)c3)cc2C(C)(C)C)O1
51 | 155 to 156 | O=C(Nc1ccc(Cl)cc1)OCCOc1ccc(Oc2ccccc2)cc1Cl
52 | > 300 | CN1CCN(c2cc(-c3cnc4c(c3)N(C(=O)Cc3cc(F)ccc3F)CCN4)ccn2)CC1
53 | 263 to 265 | CC(C)(C)OC(=O)C[C@H](NC(=O)c1cccc(NC(=O)C(Cc2ccc(C(=N)N)cc2)NC(=O)OC(C)(C)C)c1)C(=O)N[C@@H](Cc1cccc2ccccc12)C(=O)O (mixture of isomers)
54 | 196 to 200 | CCNC(=O)N1Cc2c(-c3ccc(F)cc3)ncn2-c2ccccc21
55 | 125 to 130 | CCOC(=O)c1cnn(-c2cc(C(=O)Nc3cc(C(C)(C)C)cc(NS(C)(=O)=O)c3OC)ccc2C)c1

Row | melting point [°C] | SMILES
56 | 35 to 42 | CCOC(=O)c1cc2ccc(C)cc2o1
57 | 45 to 46 | CCOc1ccc(OCc2ccccc2)c(C(=O)OC)n1
58 | 196 to 200 | O=C(/C=C/c1ccc2cc[nH]c2c1)CC(=O)/C=C/c1cc(O)ccc1Br
59 | 237 to 238 | CCNc1cc(NS(=O)(=O)c2ccc(N)cc2)nc(N(C)C)n1
60 | 177 to 178 | Cc1ccccc1N(C(=O)Nc1cc(C)c(S(=O)(=O)C[N+](=O)[O-])c(C)c1)C(C)C
61 | 119 to 120 | O=C(C(=O)c1ccc(Cl)cc1)c1ccncc1
62 | 200 | CNC(=O)NNC(=S)N1N=C(c2ccc([N+](=O)[O-])cc2)c2cc3c(cc2CC1C)OCO3 (stereo not given)
63 | 173 to 179 | COC(=O)c1ccccc1S(=O)(=O)NC(=O)Nc1nc(C)cc(OC)n1
64 | 207 to 208 | CCOc1ccn2c(C)c(CCc3ccc4nc(N)oc4c3)nc2c1
65 | 184 to 187 | Nc1nc2c(ncn2COCCOCCO)c(=O)[nH]1
66 | 263 to 265 | O=C1OC2(CCN(C(=O)Nc3cnc(-c4ccc(O)cc4)cn3)CC2)c2ccccc21
67 | 146 | O=C(O)[C@@H](Cc1ccccc1)NS(=O)(=O)c1ccc2ccccc2c1
68 | 130 to 132 | COC(=O)c1ccc(-c2ccc(-c3ccccc3)c(-c3ccc4c(c3)C(C)(C)CCC4(C)C)c2)cc1C
69 | 130 to 132 | COc1ccc2c(c1OC)CC1C(=O)N(Cc3ccccc3)C(=O)C21 (stereo not given)
70 | 174 to 177 | Cc1ncc(CSC(=O)c2ccccc2)c(CO)c1O
